From patent US10602743B2, “Method of inducing drought/salt tolerance using Bacillus megaterium” (Marrone Bio Innovations, Inc., priority 2012, dated 2020)

Tests used:
[1] = test system: Bacillus megaterium strain H491; assay: Chemical sensitivity, Biolog Phenotypic Microarray; assay type: cell-based; settings: Biolog Phenotypic Microarray; for Resistance of H491 observed in wells containing compound: at a maximum concentration of 4 ug; for H491 susceptible to compound: 25° C.
Bacillus megaterium J142 = assay: Antibiotic susceptibility, antibiotic disks on Muller-Hinton medium; assay type: cell-based; design: key: +++ (very); ++ (somewhat); + (marginally); resistance is indicated by (−); settings: antibiotic disk, 48-hour incubation at 25° C.
Experimental: (§1) Antibiotic susceptibility of Bacillus megaterium strains H491, J142 and M018 was tested using antibiotic disks on Muller-Hinton medium as described in PML Microbiological's technical data sheet #535.

Bacillus megaterium M018 = assay: as above; assay type: cell-based; design: key: +++ (very); ++ (somewhat); + (marginally); resistance is indicated by (−); settings: antibiotic disk, 48-hour incubation at 25° C.
Experimental: as §1

Bacillus megaterium H491 = assay: as above; assay type: cell-based; design: key: +++ (very); ++ (somewhat); + (marginally); resistance is indicated by (−); settings: antibiotic disk, 48-hour incubation at 25° C.
Experimental: as §1

Vero cells = settings: cited from earlier work

CC1(C)S[C@@H]2[C@H](NC(=O)[C@H](N)c3ccccc3)C(=O)N2[C@H]1C(=O)O [Ampicillin]
Resistance of H491 observed in wells containing compound [1]: Resistance | Susceptibility degree of J142 (Bacillus megaterium J142): +++ | Susceptibility degree of M018 (Bacillus megaterium M018): ++ | Susceptibility degree of H491 (Bacillus megaterium H491): +++

CO/N=C(\C(=O)N[C@@H]1C(=O)N2C(C(=O)O)=C(COC(N)=O)CS[C@H]12)c1ccco1 [Cefuroxime]
H491 susceptible to compound [1]: susceptible | Susceptibility degree of J142 (Bacillus megaterium J142): +++ | Susceptibility degree of M018 (Bacillus megaterium M018): +++ | Susceptibility degree of H491 (Bacillus megaterium H491): +++

O=C(N[C@H](CO)[C@H](O)c1ccc([N+](=O)[O-])cc1)C(Cl)Cl [Chloramphenicol]
Susceptibility degree of J142 (Bacillus megaterium J142): +++ | Susceptibility degree of M018 (Bacillus megaterium M018): ++ | Susceptibility degree of H491 (Bacillus megaterium H491): +++

O=C(O)c1cn(C2CC2)c2cc(N3CCNCC3)c(F)cc2c1=O [Ciprofloxacin]
Susceptibility degree of J142 (Bacillus megaterium J142): +++ | Susceptibility degree of M018 (Bacillus megaterium M018): +++ | Susceptibility degree of H491 (Bacillus megaterium H491): +++

CC[C@H]1OC(=O)[C@H](C)[C@@H](O[C@H]2C[C@@](C)(OC)[C@@H](O)[C@H](C)O2)[C@H](C)[C@@H](O[C@@H]2O[C@H](C)C[C@H](N(C)C)[C@H]2O)[C@](C)(O)C[C@@H](C)C(=O)[C@H](C)[C@@H](O)[C@]1(C)O [Erythromycin]
H491 susceptible to compound [1]: susceptible | Susceptibility degree of J142 (Bacillus megaterium J142): +++ | Susceptibility degree of M018 (Bacillus megaterium M018): +++ | Susceptibility degree of H491 (Bacillus megaterium H491): +++

C[C@@H](O)[C@H]1C(=O)N2C(C(=O)O)=C(SCCN=CN)C[C@H]12 [Imipenem]
Susceptibility degree of J142 (Bacillus megaterium J142): +++ | Susceptibility degree of M018 (Bacillus megaterium M018): +++ | Susceptibility degree of H491 (Bacillus megaterium H491): +++

NC[C@H]1O[C@H](O[C@H]2[C@H](O)[C@@H](O[C@H]3O[C@H](CO)[C@@H](O)[C@H](N)[C@H]3O)[C@H](N)C[C@@H]2N)[C@H](O)[C@@H](O)[C@@H]1O [Kanamycin]
Susceptibility degree of J142 (Bacillus megaterium J142): +++ | Susceptibility degree of M018 (Bacillus megaterium M018): +++ | Susceptibility degree of H491 (Bacillus megaterium H491): +++

Nc1ncnc2c1ncn2[C@@H]1O[C@H](CO)[C@H]1CO [Oxetanocin, 9-[(2R,3R,4S)-3,4-bis(hydroxymethyl)-2-oxetanyl]adenine]
Cytotoxicity against Vero cells (50% inhibition of cell growth) (Vero cells): 132.6 μg/well

CN(C)[C@@H]1C(O)=C(C(N)=O)C(=O)[C@@]2(O)C(O)=C3C(=O)c4c(O)cccc4[C@@](C)(O)[C@H]3[C@H](O)[C@@H]12 [Oxytetracycline]
Susceptibility degree of J142 (Bacillus megaterium J142): +++ | Susceptibility degree of M018 (Bacillus megaterium M018): +++ | Susceptibility degree of H491 (Bacillus megaterium H491): +++

CCN1CCN(C(=O)N[C@@H](C(=O)N[C@@H]2C(=O)N3[C@@H]2SC(C)(C)[C@@H]3C(=O)O)c2ccccc2)C(=O)C1=O [Piperacillin]
Susceptibility degree of J142 (Bacillus megaterium J142): + | Susceptibility degree of M018 (Bacillus megaterium M018): ++ | Susceptibility degree of H491 (Bacillus megaterium H491): +++

[H]/N=C(/N)N[C@H]1[C@H](O)[C@@H](O)[C@H](O[C@@H]2O[C@@H](C)[C@](O)(C=O)[C@H]2O[C@@H]2O[C@@H](CO)[C@H](O)[C@@H](O)[C@@H]2NC)[C@@H](N/C(N)=N\[H])[C@@H]1O [Streptomycin]
H491 susceptible to compound [1]: susceptible | Susceptibility degree of J142 (Bacillus megaterium J142): +++ | Susceptibility degree of M018 (Bacillus megaterium M018): + | Susceptibility degree of H491 (Bacillus megaterium H491): +++

CN(C)[C@@H]1C(O)=C(C(N)=O)C(=O)[C@@]2(O)C(O)=C3C(=O)c4c(O)cccc4[C@@](C)(O)[C@H]3C[C@@H]12 [Tetracycline]
Susceptibility degree of J142 (Bacillus megaterium J142): +++ | Susceptibility degree of M018 (Bacillus megaterium M018): +++ | Susceptibility degree of H491 (Bacillus megaterium H491): +++

Gentamicin
Resistance of H491 observed in wells containing compound [1]: Resistance | Susceptibility degree of J142 (Bacillus megaterium J142): +++ | Susceptibility degree of M018 (Bacillus megaterium M018): +++ | Susceptibility degree of H491 (Bacillus megaterium H491): +++

Penicillin
Susceptibility degree of J142 (Bacillus megaterium J142): − | Susceptibility degree of M018 (Bacillus megaterium M018): ++ | Susceptibility degree of H491 (Bacillus megaterium H491): +++
